According to US9815842B2, “Pyrazolo pyrimidine derivatives and their use as MALT1 inhibitors” (Novartis AG, priority 2014, dated 2017):

Legend:
[1] = molecular target: cIAP2-MALT1 fusion protein (Homo sapiens, UniProt Q9UDY8); assay: cell-based
Human IL2 promoter = Human IL2 promoter reporter gene assay (RGA) in Jurkat cells; assay type: cell-based; conditions: Jurkat clone K22 290_H23, anti-CD28 mAb + PMA stimulation 5.5 h
Method: Human IL2 Promoter Reporter Gene Assay (RGA) in Jurkat Cells
The transfected Jurkat clone K22 290_H23 was propagated in RPMI 1640 supplemented with 10% heat inactivated fetal calf serum, 50 μM 2-mercaptoethanol and 1 mg/ml Geneticin. The cell concentration should not exceed 1×10e6/ml during culturing. The cells should not exceed passage 30. Prior to the assay the cells were washed and prepared to the concentration of 2×10e6 cells/ml.
Compound dilutions were made as 2×-concentrated solutions then diluted 1/2 by addition to cells. Two hundred and fifty μl of compound dilution and 250 μl of cells were mixed together in wells of a 96-deep well plate. Cells/compounds premix were incubated 30 min at 37° C. and 5% CO2 directly in the deep well plate.
After pre-incubation of cells with compounds, cells were stimulated with anti-CD28 mAb (clone 15E8) at 3 μg/ml+PMA at 1 μg/ml. Both co-stimulants were diluted in culture medium at a 10×-concentrated solution. 10 μl of co-stimulants were pipetted into the white 96-well plates and 100 μl of cell/compound mix was immediately added in duplicates. The cells were stimulated for 5.5 h at 37° C. and 5% CO2.
After cell stimulation, 50 μl of BriteLitePlus reagent (Perkin Elmer) was added to each well and the bioluminescence was measured with a Wallac EnVision reader (Perkin Elmer).

[2] = molecular target: C-domain of MALT1 (amino acids 329-824) (Homo sapiens (Human), UniProt Q9UDY8); assay: MALT1 biochemical assay (fluorescence lifetime enzyme activity assay); conditions: 60 min pre-incubation, 2.5 nM enzyme, 1 μM peptide substrate
Chain of C-domain of MALT1 (amino acids 329-824) (Q9UDY8 329-824): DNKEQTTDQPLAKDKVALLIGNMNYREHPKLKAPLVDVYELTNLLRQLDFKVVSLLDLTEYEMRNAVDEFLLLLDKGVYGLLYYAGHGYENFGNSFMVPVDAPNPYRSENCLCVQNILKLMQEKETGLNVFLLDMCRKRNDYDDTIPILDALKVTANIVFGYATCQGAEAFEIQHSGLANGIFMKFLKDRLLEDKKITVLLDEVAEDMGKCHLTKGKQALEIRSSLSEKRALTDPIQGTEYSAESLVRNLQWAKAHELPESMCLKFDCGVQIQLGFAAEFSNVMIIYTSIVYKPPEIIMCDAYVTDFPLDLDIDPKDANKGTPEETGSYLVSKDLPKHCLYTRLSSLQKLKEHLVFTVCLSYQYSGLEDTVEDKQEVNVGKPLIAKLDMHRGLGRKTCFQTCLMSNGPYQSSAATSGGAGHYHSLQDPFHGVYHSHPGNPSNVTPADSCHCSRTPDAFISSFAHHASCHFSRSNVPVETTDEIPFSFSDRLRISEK
Method: The readout parameter is the increase of fluorescence lifetime over time, proportional to enzyme activity.
The assay employs a short peptide substrate labeled with the single fluorophore PT14 as a fluorescence lifetime probe sensitive to the cleavage state of the substrate (PT14: 6-(9-oxo-9H-acridin-10-yl)-hexanoate, AssayMetrics, UK). […] The assay buffer consists of 200 mM Tris/HCl at pH 7.5, 0.8 M Na citrate, 100 μM EGTA, 100 μM DTT and 0.05% (w/v) CHAPS. […] Test compounds were dissolved in 100% (v/v) DMSO or a mixture containing 90% (v/v) DMSO and 10% (v/v) H2O at a stock concentration of 100 mM. Serial dilutions of test compounds were prepared using either 100% (v/v) DMSO or a mixture containing 90% (v/v) DMSO and 10% (v/v) H2O.

Chain of cIAP2-MALT1 fusion protein (Q9UDY8 2-824 limits assumed): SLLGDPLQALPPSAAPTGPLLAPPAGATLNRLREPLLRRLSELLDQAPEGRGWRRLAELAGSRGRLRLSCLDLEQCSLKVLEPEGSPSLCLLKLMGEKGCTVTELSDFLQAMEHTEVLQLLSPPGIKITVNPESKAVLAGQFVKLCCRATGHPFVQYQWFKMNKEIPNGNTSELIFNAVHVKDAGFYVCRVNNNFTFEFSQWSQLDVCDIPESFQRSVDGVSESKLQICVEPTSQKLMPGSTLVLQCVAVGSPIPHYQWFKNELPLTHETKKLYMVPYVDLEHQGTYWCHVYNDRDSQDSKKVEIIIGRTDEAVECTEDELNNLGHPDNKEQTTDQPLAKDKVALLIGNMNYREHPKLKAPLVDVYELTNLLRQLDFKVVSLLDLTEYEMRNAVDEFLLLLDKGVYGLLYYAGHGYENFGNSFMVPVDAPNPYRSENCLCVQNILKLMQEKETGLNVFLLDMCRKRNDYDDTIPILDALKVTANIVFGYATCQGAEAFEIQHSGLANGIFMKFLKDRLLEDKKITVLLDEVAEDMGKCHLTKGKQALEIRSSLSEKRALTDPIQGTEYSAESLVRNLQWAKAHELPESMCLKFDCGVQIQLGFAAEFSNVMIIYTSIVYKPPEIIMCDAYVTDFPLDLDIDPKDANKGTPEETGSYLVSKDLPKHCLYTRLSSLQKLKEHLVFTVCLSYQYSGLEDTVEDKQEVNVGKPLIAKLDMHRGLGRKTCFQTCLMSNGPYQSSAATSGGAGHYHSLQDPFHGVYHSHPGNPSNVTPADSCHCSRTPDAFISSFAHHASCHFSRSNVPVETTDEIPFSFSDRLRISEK

Structure (SMILES) | IC50 [1] | IC50 (Human IL2 promoter) | IC50 [2]
COC(=O)c1cc(Cl)cc(NC(=O)Nc2cnc3cc(Cl)nn3c2[C@H](C)OC)c1 [Example 13, (S)-methyl 3-chloro-5-(3-(2-chloro-7-(1-methoxyethyl)pyrazolo[1,5-a]pyrimidin-6-yl)ureido)benzoate] | 77 nM | 39 nM | 2 nM
COc1ncc(NC(=O)Nc2cnc3cc(Cl)nn3c2C(C)C)cc1Cl [Example 18, 1-(5-chloro-6-methoxypyridin-3-yl)-3-(2-chloro-7-isopropylpyrazolo[1,5-a]pyrimidin-6-yl)urea] | 149 nM | 207 nM | 3 nM
Cc1ncn(-c2ccc(NC(=O)Nc3cnc4cc(Cl)nn4c3C(C)C)cc2C#N)n1 [Example 19, 1-(2-chloro-7-isopropylpyrazolo[1,5-a]pyrimidin-6-yl)-3-(3-cyano-4-(3-methyl-1H-1,2,4-triazol-1-yl)phenyl)urea] | 91 nM | 149 nM | 3 nM
CC(C)c1c(NC(=O)Nc2ccc(-n3nccn3)c(Cl)c2)cnc2cc(Cl)nn12 [Example 20, 1-(3-chloro-4-(2H-1,2,3-triazol-2-yl)phenyl)-3-(2-chloro-7-isopropylpyrazolo[1,5-a]pyrimidin-6-yl)urea] | 99 nM | 245 nM | 3 nM
Cc1cnn(-c2ncc(NC(=O)Nc3cnc4cc(Cl)nn4c3C(C)C)cc2Cl)n1 [Example 22, 1-(5-chloro-6-(4-methyl-2H-1,2,3-triazol-2-yl)pyridin-3-yl)-3-(2-chloro-7-isopropylpyrazolo[1,5-a]pyrimidin-6-yl)urea] | 74 nM | 100 nM | 4 nM
CC(C)c1c(NC(=O)Nc2ccc(-c3ccnc(N)n3)c(Cl)c2)cnc2cc(Cl)nn12 [Example 23, 1-(4-(2-aminopyrimidin-4-yl)-3-chlorophenyl)-3-(2-chloro-7-isopropylpyrazolo[1,5-a]pyrimidin-6-yl)urea] | 301 nM | 307 nM | –
CC(C)c1c(NC(=O)Nc2cc(Cl)c(=O)n(C)c2-n2cccn2)cnc2cc(Cl)nn12 [Example 24, 1-(5-chloro-1-methyl-6-oxo-2-(1H-pyrazol-1-yl)-1,6-dihydropyridin-3-yl)-3-(2-chloro-7-isopropylpyrazolo[1,5-a]pyrimidin-6-yl)urea] | 131 nM | 214 nM | 5 nM
CCOc1ncc(NC(=O)Nc2cnc3cc(Cl)nn3c2C(C)C)cc1Cl [Example 25, 1-(5-chloro-6-ethoxypyridin-3-yl)-3-(2-chloro-7-isopropylpyrazolo[1,5-a]pyrimidin-6-yl)urea] | 306 nM | 526 nM | –
CC(C)c1c(NC(=O)Nc2cncc(Br)c2)cnc2cc(Cl)nn12 [Example 26, 1-(5-bromopyridin-3-yl)-3-(2-chloro-7-isopropylpyrazolo[1,5-a]pyrimidin-6-yl)urea] | 85 nM | 134 nM | 5 nM
CC(C)c1c(NC(=O)Nc2cnc(N3CCCS3(=O)=O)c(C(F)(F)F)c2)cnc2cc(Cl)nn12 [Example 27, 1-(2-chloro-7-isopropylpyrazolo[1,5-a]pyrimidin-6-yl)-3-(6-(1,1-dioxidoisothiazolidin-2-yl)-5-(trifluoromethyl)pyridin-3-yl)urea] | 54 nM | 248 nM | 6 nM
COc1ccccc1-c1c(NC(=O)Nc2cnc(-n3nccn3)c(Cl)c2)cnc2cc(Cl)nn12 [Example 53, 1-(5-chloro-6-(2H-1,2,3-triazol-2-yl)pyridin-3-yl)-3-(2-chloro-7-(2-methoxyphenyl)pyrazolo[1,5-a]pyrimidin-6-yl)urea] | 171 nM | – | 4 nM
CC1(c2c(NC(=O)Nc3cnc(-n4nccn4)c(Cl)c3)cnc3cc(Cl)nn23)CCOCC1 [Example 55, 1-(5-chloro-6-(2H-1,2,3-triazol-2-yl)pyridin-3-yl)-3-(2-chloro-7-(4-methyltetrahydro-2H-pyran-4-yl)pyrazolo[1,5-a]pyrimidin-6-yl)urea] | 287 nM | – | 5 nM
C[C@@H](OCc1ccccc1)c1c(NC(=O)Nc2cnc(-n3nccn3)c(C(F)(F)F)c2)cnc2cc(Cl)nn12 [Example 65, (R)-1-(6-(2H-1,2,3-triazol-2-yl)-5-(trifluoromethyl)pyridin-3-yl)-3-(7-(1-(benzyloxy)ethyl)-2-chloropyrazolo[1,5-a]pyrimidin-6-yl)urea] | 405 nM | – | 9 nM
COc1ncc(NC(=O)Nc2cnc3cc(Cl)nn3c2C2C3COCC32)cc1Cl (centres unmarked) [Example 67, 1-(7-(3-oxabicyclo[3.1.0]hexan-6-yl)-2-chloropyrazolo[1,5-a]pyrimidin-6-yl)-3-(5-chloro-6-methoxypyridin-3-yl)urea] | 553 nM | – | 35 nM
COCC1(c2c(NC(=O)Nc3ccnc(C(F)(F)F)c3)cnc3cc(Cl)nn23)CC1 [Example 77, 1-(2-chloro-7-(1-(methoxymethyl)cyclopropyl)pyrazolo[1,5-a]pyrimidin-6-yl)-3-(2-(trifluoromethyl)pyridin-4-yl)urea] | 241 nM | – | 6 nM
CC(C)(c1c(NC(=O)Nc2ccnc(C(F)(F)F)c2)cnc2cc(Cl)nn12)C1CCOCC1 [Example 80, 1-(2-chloro-7-(2-(tetrahydro-2H-pyran-4-yl)propan-2-yl)pyrazolo[1,5-a]pyrimidin-6-yl)-3-(2-(trifluoromethyl)pyridin-4-yl)urea] | 621 nM | – | 34 nM

Results, then the compound that gave them:

IC50 [1] | IC50 (Human IL2 promoter) | IC50 [2] | Structure (SMILES)
49 nM | 67 nM | 3 nM | COC(C)(C)c1c(NC(=O)Nc2cnc(-n3nccn3)c(Cl)c2)cnc2cc(Cl)nn12 [Example 14, 1-(5-chloro-6-(2H-1,2,3-triazol-2-yl)pyridin-3-yl)-3-(2-chloro-7-(2-methoxypropan-2-yl)pyrazolo[1,5-a]pyrimidin-6-yl)urea]
284 nM | – | 19 nM | O=C(Nc1cnc(-n2nccn2)c(Cl)c1)Nc1cnc2cc(Cl)nn2c1C1CCOC1 (centres unmarked) [Example 57, 1-(5-chloro-6-(2H-1,2,3-triazol-2-yl)pyridin-3-yl)-3-(2-chloro-7-(tetrahydrofuran-3-yl)pyrazolo[1,5-a]pyrimidin-6-yl)urea]
502 nM | – | 26 nM | O=C(Nc1cnc(-n2nccn2)c(Cl)c1)Nc1cnc2cc(Cl)nn2c1CC1CCOCC1 [Example 60, 1-(5-chloro-6-(2H-1,2,3-triazol-2-yl)pyridin-3-yl)-3-(2-chloro-7-((tetrahydro-2H-pyran-4-yl)methyl)pyrazolo[1,5-a]pyrimidin-6-yl)urea]
370 nM | – | 19 nM | CC(C)OCc1c(NC(=O)Nc2cnc(-n3nccn3)c(Cl)c2)cnc2cc(Cl)nn12 [Example 61, 1-(5-chloro-6-(2H-1,2,3-triazol-2-yl)pyridin-3-yl)-3-(2-chloro-7-(isopropoxymethyl)pyraozlo[1,5-a]pyrimidin-6-yl)urea]
187 nM | – | 13 nM | COCCC(OC)c1c(NC(=O)Nc2cnc(-n3nccn3)c(Cl)c2)cnc2cc(Cl)nn12 (centres unmarked) [Example 64, 1-(5-chloro-6-(2H-1,2,3-triazol-2-yl)pyridin-3-yl)-3-(2-chloro-7-(1,3-dimethoxypropyl)pyrazolo[1,5-a]pyrimidin-6-yl)urea]
891 nM | – | 123 nM | CN(C)C(=O)c1c(NC(=O)Nc2cnc(-n3nccn3)c(Cl)c2)cnc2cc(Cl)nn12 [Example 70, 2-chloro-6-(3-(5-chloro-6-(2H-1,2,3-triazol-2-yl)pyridin-3-yl)ureido)-N,N-dimethylpyrazolo[1,5-a]pyrimidine-7-carboxamide]
311 nM | – | 122 nM | C[C@H](OCCN(C)C)c1c(NC(=O)Nc2cnc(-n3nccn3)c(Cl)c2)cnc2cc(Cl)nn12 [Example 82, (S)-1-(5-chloro-6-(2H-1,2,3-triazol-2-yl)pyridin-3-yl)-3-(2-chloro-7-(1-(2-(dimethylamino)ethoxy)ethyl)pyrazolo[1,5-a]pyrimidin-6-yl)urea]
89 nM | – | 19 nM | CN1CCCC[C@H]1c1c(NC(=O)Nc2cnc(-n3nccn3)c(Cl)c2)cnc2cc(Cl)nn12 [Example 84, (S)-1-(5-chloro-6-(2H-1,2,3-triazol-2-yl)pyridin-3-yl)-3-(2-chloro-7-(1-methylpiperidin-2-yl)pyrazolo[1,5-a]pyrimidin-6-yl)urea]
190 nM | – | 5 nM | CO[C@H](C)CO[C@@H](C)c1c(NC(=O)Nc2cnc(-n3nccn3)c(Cl)c2)cnc2cc(Cl)nn12 [Example 85, 1-(5-chloro-6-(2H-1,2,3-triazol-2-yl)pyridin-3-yl)-3-(2-chloro-7-((S)-1-((R)-2-methoxypropoxy)ethyl)pyrazolo[1,5-a]pyrimidin-6-yl)urea]
